Structures can show the parent of a compound that is named as a salt.
Legend:
[1] = test system: K562 (chronic myelogenous leukemia; leukemia cell line +ve for Bcr-Abl); experiment: Cancer cell assay, K562 tumor cells, viable cells after 96 hours; format: cell-based; settings: 96 hours after treatment, called IC50
Experimental: (§1) The effect of the compounds of the invention on tumor cells was determined by the assay described by Latham et al., Oncogene 12:827-837 (1996). Tumor cells K562 (chronic myelogenous leukemia; leukemia cell line +ve for Bcr-Abl) or DU145 (prostate cancer) were plated in 12-well dishes at a cell density of 2.5×10^4 cells well. The plated cells were treated 24 hours later with a compound of the invention dissolved in DMSO at multiple concentrations ranging from 0.01 μM to 100 μM. The plates were examined 96 hours later under an inverted microscope, Olympus CK-2 using a 10× objective, and compound activity was noted by physical observation. When necessary, the total number of viable cells was determined by trypsinizing the wells and counting the number of viable cells, as determined by trypan blue exclusion, using a hemacytometer.

[2] = test system: DU145 (prostate cancer); experiment: Cancer cell assay, DU145 tumor cells, viable cells after 96 hours; format: cell-based; settings: Homo sapiens, DU-145, 96 hours after treatment, called IC50
Experimental: as §1

Row | melting point [°C] | IC50 ([1]; Homo sapiens) [µM] | IC50 [2] [µM] | IC50 [1] [µM] | Compound
1 | 249 to 251 |  |  |  | COC(=O)c1sc2c(c[n+](C)c3cc(OC)c(OC)cc23)c1N (as salt: iodide) [Example 30, 3-amino-7,8-dimethoxy-2-(methoxycarbonyl)-5-methylthieno[3,2-c]quinolin-5-ium iodide]
2 | 260 to 262 | 0.15 | 0.6 |  | COC(=O)c1sc2c(cnc3cc(OC)c(OC)cc32)c1N [Example 1, Methyl 3-amino-7,8-dimethoxythieno[3,2-c]quinolone-2-carboxylate]
3 | 215 to 218 | 0.5 to 1 | > 1 |  | CCOC(=O)c1sc2c(cnc3cc(OC)c(OC)cc32)c1N [Example 2, Ethyl 3-amino-7,8-dimethoxythieno[3,2-c]quinolone-2-carboxylate]
4 | 286 to 288 | > 10 | > 10 |  | COc1cc2ncc3c(N)c(C(=O)c4ccc(F)cc4)sc3c2cc1OC [Example 3, (3-Amino-7,8-dimethoxythieno[3,2-c]quinolin-2-yl)(4-fluorophenyl)methanone]
5 | 221 to 223 | > 10 | > 10 |  | COC(=O)c1sc2c(cnc3cc(OCc4ccccc4)c(OC)cc32)c1N [Example 4, Methyl 3-amino-7-benzyloxy-8-methoxythieno[3,2-c]quinolone-2-carboxylate]
6 | 230 to 234 | 1 to 10 | > 10 |  | COc1cc2ncc3c(N)c(C(=O)C(F)(F)F)sc3c2cc1OC [Example 5, 1-(3-Amino-7,8-dimethoxythieno[3,2-c]quinolin-2-yl)-2,2,2-trifluoroethanone]
7 | 260 to 263 | 0.5 to 1 | 1 to 10 |  | COc1cc2ncc3c(N)c(C(C)=O)sc3c2cc1OC [Example 6, 1-(3-Amino-7,8-dimethoxythieno[3,2-c]quinolin-2-yl)ethanone]
8 | 272 to 274 | > 10 | > 10 |  | COC(=O)c1sc2c(cnc3cc(OC)c(OCc4ccccc4)cc32)c1N [Example 7, Methyl 3-amino-8-benzyloxy-7-methoxythieno[3,2-c]quinoline-2-carboxylate]
9 | 314 to 316 | 1 to 10 | 10 to 25 |  | COc1cc2ncc3c(N)c(C#N)sc3c2cc1OC [Example 8, 3-Amino-7,8-dimethoxythieno[3,2-c]quinoline-2-carbonitrile]
10 | 244 to 246 | 1 to 10 | > 10 |  | COC(=O)c1sc2c(cnc3cc(O)c(OC)cc32)c1N [Example 9, Methyl 3-amino-7-hydroxy-8-methoxythieno[3,2-c]quinoline-2-carboxylate]
11 | 277 to 280 | > 100 | > 100 |  | COC(=O)c1sc2c(cnc3cc(OC)c(O)cc32)c1N [Example 10, Methyl 3-amino-8-hydroxy-7-methoxythieno[3,2-c]quinoline-2-carboxylate]
12 | 117 to 120 | 1 to 10 | 1 to 10 |  | COC(=O)c1sc2c(cnc3cc(OCCCN4CCOCC4)c(OC)cc32)c1N [Example 11, Methyl 3-amino-8-methoxy-7-(3-morpholinopropoxy)thieno[3,2-c]quinoline-2-carboxylate]
13 | 127 to 130 | 1 to 5 | 1 to 5 |  | COC(=O)c1sc2c(cnc3cc(OCCCN4CCCCC4)c(OC)cc32)c1N [Example 12, Methyl 3-amino-8-methoxy-7-[3-(piperidin-1-yl)propoxy]thieno[3,2-c]quinoline-2-carboxylate]
14 | 158 to 160 | 10 to 25 | 10 to 25 |  | COC(=O)c1sc2c(cnc3cc(OCCN4CCOCC4)c(OC)cc32)c1N [Example 14, Methyl 3-amino-8-methoxy-7-(2-morpholinoethoxy)thieno[3,2-c]quinoline-2-carboxylate]
15 | 188 to 190 | 10 to 25 | 10 to 25 |  | COC(=O)c1sc2c(cnc3cc(OC)c(OCCCN4CCOCC4)cc32)c1N [Example 15, Methyl 3-amino-7-methoxy-8-(3-morpholinopropoxy)thieno[3,2-c]quinoline-2-carboxylate]
16 | 255 to 258 | < 1 | < 1 |  | COC(=O)c1sc2c(cnc3cc(OC)c(OC)cc32)c1NC(=O)c1ccc(OC)cc1 [Example 16, Methyl 7,8-dimethoxy-3-(4-methoxybenzamido)thieno[3,2-c]quinoline-2-carboxylate]

Row | melting point [°C] | IC50 ([1]; Homo sapiens) [µM] | IC50 [2] [µM] | IC50 [1] [µM] | Compound
17 | 237 to 240 | 0.1 to 0.25 | 0.5 to 1 |  | COC(=O)c1sc2c(cnc3cc(OC)c(OC)cc32)c1NC(=O)c1ccccc1F [Example 17, Methyl 3-(2-fluorobenzamido)-7,8-dimethoxythieno[3,2-c]quinoline-2-carboxylate]
18 | 205 to 208 | 0.1 to 0.25 | 0.25 to 0.5 |  | COC(=O)c1sc2c(cnc3cc(OC)c(OC)cc32)c1NC(=O)c1ccccc1 [Example 19, Methyl 3-benzamido-7,8-dimethoxythieno[3,2-c]quinoline-2-carboxylate]
19 | 178 to 181 | 3 | 25 |  | COC(=O)c1sc2c(cnc3cc(OC)c(OC)cc32)c1NC(=O)c1ccccc1[N+](=O)[O-] [Example 20, Methyl 7,8-dimethoxy-3-(2-nitrobenzamido)thieno[3,2-c]quinoline-2-carboxylate]
20 | 260 to 262 | 0.1 to 0.5 | 0.5 to 1 |  | COC(=O)c1sc2c(cnc3cc(OC)c(OC)cc32)c1NC(=O)c1ccc(Cl)c([N+](=O)[O-])c1 [Example 22, Methyl 3-(4-chloro-3-nitrobenzamido)-7,8-dimethoxythieno[3,2-c]quinoline-2-carboxylate]
21 | 224 to 230 | 0.2 | 0.75 |  | COC(=O)c1sc2c(cnc3cc(OC)c(OC)cc32)c1NC(=O)C(F)(F)F [Example 23, Methyl 7,8-dimethoxy-3-(2,2,2-trifluoroacetamido)thieno[3,2-c]quinoline-2-carboxylate]
22 |  | 1 to 10 | 1 to 10 |  | COC(=O)c1sc2c(cnc3cc(OC)c(OC)cc32)c1NC(=O)C(=O)N1CCN(C)CC1 [Example 25, Methyl 7,8-dimethoxy-3-[2-(4-methylpiperazin-1-yl)-2-oxoacetamido]thieno[3,2-c]quinoline-2-carboxylate]
23 | 232 to 234 | 50 to 100 | 25 to 50 |  | COC(=O)c1sc2c(cnc3cc(OC)c(OC)cc32)c1NC(=O)C(=O)N1CCOCC1 [Example 26, Methyl 7,8-dimethoxy-3-(2-morpholino-2-oxoacetamido)thieno[3,2-c]quinoline-2-carboxylate]
24 | 245 to 248 | 1 to 10 | 1 to 10 |  | COC(=O)c1sc2c(cnc3cc(OC)c(OC)cc32)c1NC(=O)C(=O)N1CCN(c2ccncc2)CC1 [Example 27, Methyl 7,8-dimethoxy-3-{2-oxo-2-[4-(pyridin-4-yl)piperazin-1-yl]acetamido}thieno[3,2-c]quinoline-2-carboxylate]
25 | 240 to 246 | 1 to 10 | 10 to 25 |  | COC(=O)c1sc2c(cnc3cc(OC)c(OC)cc32)c1NC(=O)C(=O)Nc1ccc(N2CCN(C)CC2)cc1 [Example 28, Methyl 7,8-dimethoxy-3-(2-{[4-(4-methylpiperazin-1-yl)phenyl]amino}-2-oxoacetamido)thieno[3,2-c]quinoline-2-carboxylate]
26 |  | 5 to 10 | > 10 |  | COC(=O)c1sc2c(c[n+](C)c3cc(OC)c(OC)cc23)c1N [Example 30, 3-amino-7,8-dimethoxy-2-(methoxycarbonyl)-5-methylthieno[3,2-c]quinolin-5-ium iodide]
27 |  | 50 to 100 | > 100 |  | COC(=O)C[n+]1cc2c(N)c(C(=O)OC)sc2c2cc(OC)c(OC)cc21 [Example 31, 3-amino-7,8-dimethoxy-5-(2-methoxy-2-oxoethyl)-2-(methoxycarbonyl)thieno[3,2-c]quinolin-5-ium bromide]
28 | 173 to 175 | 10 to 25 | 10 to 25 |  | COC(=O)c1sc2c(cnc3cc(OC)c(OC)cc32)c1/N=C/N(C)C [Example 32, (E)-methyl 3-(((dimethylamino)methylene)amino)-7,8-dimethoxythieno[3,2-c]quinoline-2-carboxylate]
29 | 252 to 255 | 25 to 50 | 50 to 100 |  | COc1cc2ncc3c(N)c(-c4nnn[nH]4)sc3c2cc1OC [Example 33, 7,8-dimethoxy-2-(1H-tetrazol-5-yl)thieno[3,2-e]quinolin-3-amine]
30 | 270 to 272 | 10 | 10 |  | COC(=O)c1sc2c(cnc3ccc(F)cc32)c1N [Example 34, Methyl 3-amino-8-fluorothieno[3,2-c]quinoline-2-carboxylate]
31 |  |  |  | < 1 | Methyl 7,8-dimethoxy-3-(2-aminobenzamido)thieno[3,2-e]quinoline-2-carboxylate [Example 21]

Row | Compound | melting point [°C] | IC50 ([1]; Homo sapiens) [µM] | IC50 [2] [µM] | IC50 [1] [µM]
32 | COC(=O)c1sc2c(cnc3cc(OC(=O)N4CCN(C)CC4)c(OC)cc32)c1N [Example 13, Methyl 3-amino-8-methoxy-7-[(4-methylpiperazine-1-carbonyl)oxy]thieno[3,2-c]quinoline-2-carboxylate] | 147 to 150 | 10 to 25 | 10 to 25 | 
